This is an account of results in patent US10618918B2, “Substituted boronic acids as antimicrobials” (priority 2015, dated 2020).

The structures appear in SMILES notation. Read-outs that look alike come from different tables or passages of the source.

For assay [1], the system named is KP1004 KPC-2. The assay can be described thus: Biapenem potentiation (MPC@1), strain KP1004 KPC-2. It is filed as cell-based. Particulars: minimum BLI concentration inhibiting growth with biapenem 1 μg/mL; tested up to 40 μg/mL. As for the experimental part: (§1) Biapenem was present in the test medium at 1 μg/mL. […] Table 3 summarizes the BLI potency of biapenem potentiation (MPC@1) for two strains overexpressing class A (KPC) and class D (OXA-48) carbapenemases. Biapenem MIC for each strain is also shown.

The subject of a further assay is KP1086 OXA-48. Description: Biapenem potentiation (MPC@1), strain KP1086 OXA-48. It is filed as cell-based. Particulars: minimum BLI concentration inhibiting growth with biapenem 1 μg/mL; tested up to 40 μg/mL. As for the experimental part:
as §1

A further assay has as its system AB1053 OXA-72. The assay can be described thus: Meropenem potentiation (MPC@8), strain AB1053 OXA-72. It is filed as cell-based, Acinetobacter baumannii. The conditions noted are these: minimum BLI concentration inhibiting growth with meropenem 8 μg/mL; tested up to 20 μg/mL.
For another assay, the system named is AB1054 OXA-23. Description: Meropenem potentiation (MPC@8), strain AB1054 OXA-23. It is filed as cell-based, Acinetobacter baumannii. The conditions noted are these: minimum BLI concentration inhibiting growth with meropenem 8 μg/mL; tested up to 20 μg/mL.
Assay [2] concerns the target T1, purified class A, C and D enzymes (β-lactamases) (Acinetobacter baumannii, UniProt Q9L4P2).
T1 construct: rows headed: Ki (OXA-23, NCF), uM; other: purified OXA-23; nitrocefin (NCF) as reporter substrate
Description: biochemical. Particulars: purified OXA-23; nitrocefin (NCF) as reporter substrate. It is filed as biochemical.

In assay [3] the target is purified class A, C and D enzymes (β-lactamases) (Enterobacter cloacae, UniProt P05364). The assay can be described thus: biochemical. It is filed as biochemical.
Sequence of purified class A, C and D enzymes (β-lactamases) (Enterobacter cloacae, UniProt P05364) (P05364 21-381): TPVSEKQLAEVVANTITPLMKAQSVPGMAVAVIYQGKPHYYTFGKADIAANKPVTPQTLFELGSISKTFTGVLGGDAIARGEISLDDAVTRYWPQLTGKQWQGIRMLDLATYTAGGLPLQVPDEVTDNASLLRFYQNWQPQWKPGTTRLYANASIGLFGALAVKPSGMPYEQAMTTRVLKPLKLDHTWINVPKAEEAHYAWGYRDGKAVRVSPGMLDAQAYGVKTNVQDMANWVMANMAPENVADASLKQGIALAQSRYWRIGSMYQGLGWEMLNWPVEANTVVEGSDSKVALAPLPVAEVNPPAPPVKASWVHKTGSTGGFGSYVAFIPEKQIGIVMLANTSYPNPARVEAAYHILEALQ
Assay [4] has as its target purified class A, C and D enzymes (β-lactamases) (Escherichia coli, UniProt Q9L5C7). The assay can be described thus: biochemical. It is filed as biochemical. Particulars: purified CTX-M-14; nitrocefin (NCF) as reporter substrate.
Assay [5] has as its target purified class A, C and D enzymes (β-lactamases) (Klebsiella pneumoniae, UniProt Q6XEC0). The assay can be described thus: biochemical. It is filed as biochemical. The conditions noted are these: purified OXA-48; nitrocefin (NCF) as reporter substrate.
The target of assay [6] is purified class A, C and D enzymes (β-lactamases) (Klebsiella pneumoniae, UniProt Q9F663). Description: biochemical. Particulars: purified KPC-2; nitrocefin (NCF) as reporter substrate. It is filed as biochemical.
Assay [7] concerns the target T2, purified class A, C and D enzymes (β-lactamases) (Pseudomonas aeruginosa, UniProt P24735).
T2 construct: rows headed: Ki (Pa-AmpC, NCF), uM; other: purified Pa-AmpC; nitrocefin (NCF) as reporter substrate
The assay can be described thus: biochemical. It is filed as biochemical.

The subject of a further assay is ECL1002. Description: Aztreonam potentiation (MPC@4), strain ECL1002. Particulars: minimum BLI concentration inhibiting growth with aztreonam 4 μg/mL; tested up to 40 μg/mL.
In a further assay the test system is ec308 SHV-5. The assay can be described thus: Aztreonam potentiation (MPC@4), strain ec308 SHV-5. Particulars: minimum BLI concentration inhibiting growth with aztreonam 4 μg/mL; tested up to 40 μg/mL.
The next assay deals with ec302 TEM-10. Description: Aztreonam potentiation (MPC@4), strain ec302 TEM-10. Particulars: minimum BLI concentration inhibiting growth with aztreonam 4 μg/mL; tested up to 40 μg/mL.
The test system of assay [8] is KP1004 KPC-2. The assay can be described thus: Aztreonam potentiation (MPC@4), strain KP1004 KPC-2. The conditions noted are these: minimum BLI concentration inhibiting growth with aztreonam 4 μg/mL; tested up to 40 μg/mL.
The test system of another assay is EC1010 CMY-6. The assay can be described thus: Aztreonam potentiation (MPC@4), strain EC1010 CMY-6. The conditions noted are these: minimum BLI concentration inhibiting growth with aztreonam 4 μg/mL; tested up to 40 μg/mL.
The subject of another assay is KP1010 SHV-12. Description: Aztreonam potentiation (MPC@4), strain KP1010 SHV-12. The conditions noted are these: minimum BLI concentration inhibiting growth with aztreonam 4 μg/mL; tested up to 40 μg/mL.
For a further assay, the system named is KP1009 CTX-M-15. Description: Aztreonam potentiation (MPC@4), strain KP1009 CTX-M-15. The conditions noted are these: minimum BLI concentration inhibiting growth with aztreonam 4 μg/mL; tested up to 40 μg/mL.
For the next assay, the system named is KP1005 CTX-M-14. The assay can be described thus: Tigemonam potentiation (MPC@4), strain KP1005 CTX-M-14. The conditions noted are these: minimum BLI concentration inhibiting growth with tigemonam 4 μg/mL; tested up to 40 μg/mL.

T2 sequence (P24735 whole entry): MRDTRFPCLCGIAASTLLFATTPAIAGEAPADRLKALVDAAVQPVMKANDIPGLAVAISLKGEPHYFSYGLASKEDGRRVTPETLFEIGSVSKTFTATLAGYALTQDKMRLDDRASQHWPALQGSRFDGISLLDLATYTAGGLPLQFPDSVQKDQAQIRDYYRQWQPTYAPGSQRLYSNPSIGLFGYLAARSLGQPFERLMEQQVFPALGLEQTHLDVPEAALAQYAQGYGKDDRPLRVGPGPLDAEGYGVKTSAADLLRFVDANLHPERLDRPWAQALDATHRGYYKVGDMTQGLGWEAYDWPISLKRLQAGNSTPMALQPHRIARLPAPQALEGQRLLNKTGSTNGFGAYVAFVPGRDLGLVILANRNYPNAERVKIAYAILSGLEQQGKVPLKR
T1 sequence (Q9L4P2 whole entry): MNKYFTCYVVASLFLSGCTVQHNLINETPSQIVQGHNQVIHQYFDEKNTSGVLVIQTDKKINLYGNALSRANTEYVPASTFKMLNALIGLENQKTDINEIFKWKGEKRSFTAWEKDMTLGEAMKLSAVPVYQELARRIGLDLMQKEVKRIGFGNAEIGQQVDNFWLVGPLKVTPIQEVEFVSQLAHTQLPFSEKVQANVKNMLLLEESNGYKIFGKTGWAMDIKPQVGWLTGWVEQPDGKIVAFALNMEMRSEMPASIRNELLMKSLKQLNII
Sequence of purified class A, C and D enzymes (β-lactamases) (Escherichia coli, UniProt Q9L5C7) (Q9L5C7 entry or part of it): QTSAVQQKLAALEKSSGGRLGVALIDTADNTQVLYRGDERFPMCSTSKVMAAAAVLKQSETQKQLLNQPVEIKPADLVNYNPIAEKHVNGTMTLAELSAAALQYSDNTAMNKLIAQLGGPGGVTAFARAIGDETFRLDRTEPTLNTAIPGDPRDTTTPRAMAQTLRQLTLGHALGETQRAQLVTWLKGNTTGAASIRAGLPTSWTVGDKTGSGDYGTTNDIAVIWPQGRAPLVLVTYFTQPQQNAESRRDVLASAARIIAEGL

Consider `O=C(O)c1c(F)ccc2c1OB(O)COC2` [Compound 58, 8-Fluoro-2-hydroxy-3,5-dihydro-1,4,2-benzodioxaborepine-9-carboxylic acid], for which the “BPM MPC1 KP1004 KPC-2” value in the assay on KP1004 KPC-2 [1] was “X (X = MPC@1 ≤ 5 μg/mL)”. In the assay with KP1086 OXA-48, the “BPM MPC1 OXA-48 KP1086” value is listed as “X (X = MPC@1 ≤ 5 μg/mL)”. In addition, the “MPM MPC8 AB1053 OXA-72” value with AB1053 OXA-72 is “Z (Z = MPC@1 > 20 μg/mL)”. The “MPM MPC8 AB1054 OXA-23” value with AB1054 OXA-23 is “Z (Z = MPC@1 > 20 μg/mL)”. Besides, the Ki in assay [2] is 100 to 1000 nM; in [7] (purified Pa-AmpC, nitrocefin (NCF) as reporter substrate, read-out: Ki (Pa-AmpC, NCF)), under 100 nM. In addition, in assay [3] (purified P99, nitrocefin (NCF) as reporter substrate), the “Ki (P99, NCF), uM” value is recorded as “X (X = Ki ≤ 0.1 μM)”. In addition, the “Ki (CTX-M-14, NCF), uM” value in assay [4] was “X (X = Ki ≤ 0.1 μM)”. Also, the “Ki (OXA-48, NCF), uM” value in assay [5] is “X (X = Ki ≤ 0.1 μM)”. Moreover, the “Ki (KPC-2, NCF), uM” value in [6] is on record as “X (X = Ki ≤ 0.1 μM)”. For the same molecule, the “AZT MPC4 ECL1002” value in the assay with ECL1002 is “X (X = MPC@4 ≤ 5 μg/mL)”. Further, the “AZT MPC4 SHV-5 ec308” value in the assay with ec308 SHV-5 is “Z (Z = MPC@4 > 20 μg/mL)”. In the assay with ec302 TEM-10, the “AZT MPC4 TEM-10 ec302” value is “Z (Z = MPC@4 > 20 μg/mL)”. Also, the “AZT MPC4 KPC-2 KP1004” value in the assay on KP1004 KPC-2 [8] is “X (X = MPC@4 ≤ 5 μg/mL)”. The “AZT MPC4 CMY-6 EC1010” value in the assay on EC1010 CMY-6 is recorded as “X (X = MPC@4 ≤ 5 μg/mL)”. For the same molecule, the “AZT MPC4 SHV-12 KP1010” value in the assay with KP1010 SHV-12 was “Y (Y = 5 μg/mL < MPC@4 ≤ 20 μg/mL)”. The “AZT MPC4 CTX-M-15 KP1009” value in the assay with KP1009 CTX-M-15 was “Z (Z = MPC@4 > 20 μg/mL)”. Besides, in the assay on KP1005 CTX-M-14, the “TIG MPC4 CTX-M-14 KP1005” value is reported as “Z (Z = MPC@4 > 20 μg/mL)”.

With `O=C([O-])c1cncc2c1O[B-](O)(O)CC2.[Na+].[Na+]` [Compound 59, Disodium; 4,4-dihydroxy-5-oxa-9-aza-4-boranuidabicyclo[4.4.0]deca-1(6),7,9-triene-7-carboxylate], the “BPM MPC1 KP1004 KPC-2” value with KP1004 KPC-2 [1] is on record as “X (X = MPC@1 ≤ 5 μg/mL)”. In addition, the “BPM MPC1 OXA-48 KP1086” value in the assay on KP1086 OXA-48 is “X (X = MPC@1 ≤ 5 μg/mL)”. For the same molecule, the “MPM MPC8 AB1053 OXA-72” value in the assay on AB1053 OXA-72 is reported as “Y (Y = 5 μg/mL < MPC@1 ≤ 20 μg/mL)”. Besides, in the assay with AB1054 OXA-23, the “MPM MPC8 AB1054 OXA-23” value is given as “Z (Z = MPC@1 > 20 μg/mL)”. Further, the Ki in assay [2] was over 1000 nM; in assay [7] it was 100 to 1000 nM. In addition, in [3], the “Ki (P99, NCF), uM” value is given as “Z (key: X = Ki ≤ 0.1 μM; Y = 0.1 μM < Ki ≤ 1 μM; Z = Ki > 1 μM)”. The “Ki (CTX-M-14, NCF), uM” value in assay [4] is listed as “X (X = Ki ≤ 0.1 μM)”. For the same molecule, the “Ki (OXA-48, NCF), uM” value in assay [5] is recorded as “X (X = Ki ≤ 0.1 μM)”. Further, the “Ki (KPC-2, NCF), uM” value in assay [6] is “X (X = Ki ≤ 0.1 μM)”. Further, the “AZT MPC4 ECL1002” value in the assay with ECL1002 is listed as “Z (Z = MPC@4 > 20 μg/mL)”. Further, the “AZT MPC4 SHV-5 ec308” value in the assay with ec308 SHV-5 is listed as “Y (Y = 5 μg/mL < MPC@4 ≤ 20 μg/mL)”. Further, the “AZT MPC4 TEM-10 ec302” value in the assay with ec302 TEM-10 was “X (X = MPC@4 ≤ 5 μg/mL)”. Further, the “AZT MPC4 KPC-2 KP1004” value in the assay on KP1004 KPC-2 [8] is “X (X = MPC@4 ≤ 5 μg/mL)”. For the same molecule, the “AZT MPC4 CMY-6 EC1010” value in the assay with EC1010 CMY-6 is “Y (Y = 5 μg/mL < MPC@4 ≤ 20 μg/mL)”. The “AZT MPC4 SHV-12 KP1010” value in the assay with KP1010 SHV-12 is reported as “X (X = MPC@4 ≤ 5 μg/mL)”. Besides, in the assay on KP1009 CTX-M-15, the “AZT MPC4 CTX-M-15 KP1009” value was “Y (Y = 5 μg/mL < MPC@4 ≤ 20 μg/mL)”. Further, the “TIG MPC4 CTX-M-14 KP1005” value in the assay with KP1005 CTX-M-14 is recorded as “Z (Z = MPC@4 > 20 μg/mL)”.

As a reminder, the Ki is the dissociation constant of the complex between target and ligand, obtained from inhibition or displacement.
